Source: article PMC8308777, “Small Molecule–Peptide Conjugates as Dimerization Inhibitors of Leishmania infantum Trypanothione Disulfide Reductase” (Pharmaceuticals, 2021)
Like-named read-outs stand apart in the source and are kept apart here.

What was measured:
[1] = molecular target: T1, Leishmania infantum trypanothione disulfide reductase (LiTryR) (Leishmania infantum, UniProt A4HSF7); assay: LiTryR oxidoreductase activity assay (DTNB-coupled); assay type: biochemical; conditions: no preincubation; for IC50: modified DTNB-coupled assay, 26 °C, HEPES pH 7.5, HIS-LiTryR 7 nM, TS2 1 μM, NADPH 150 μM, inhibitor 0.1-25 μM, IC50 ± SE, three independent experiments in triplicate, read-out: IC50act, LiTryR oxidoreductase activity
T1 construct: HIS; made in house; host or cells: E. coli BL21 (DE3) Rossetta 2
T1 sequence (A4HSF7 entry or part of it): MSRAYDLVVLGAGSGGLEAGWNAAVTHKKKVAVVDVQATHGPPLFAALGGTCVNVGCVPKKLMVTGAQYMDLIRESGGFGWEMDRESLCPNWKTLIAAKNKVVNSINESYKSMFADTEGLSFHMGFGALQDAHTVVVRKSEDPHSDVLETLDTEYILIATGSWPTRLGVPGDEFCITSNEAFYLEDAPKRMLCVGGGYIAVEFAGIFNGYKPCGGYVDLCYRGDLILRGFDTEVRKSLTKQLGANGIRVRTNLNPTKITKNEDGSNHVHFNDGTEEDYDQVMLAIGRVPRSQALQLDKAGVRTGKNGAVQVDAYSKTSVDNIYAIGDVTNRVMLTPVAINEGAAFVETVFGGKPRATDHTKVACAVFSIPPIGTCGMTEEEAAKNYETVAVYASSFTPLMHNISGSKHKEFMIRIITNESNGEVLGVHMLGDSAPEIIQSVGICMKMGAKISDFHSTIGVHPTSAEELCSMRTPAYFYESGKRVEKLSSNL
Protocol: LiTryR oxidoreductase activity was assessed spectrophotometrically using a modified version of the DTNB-coupled assay, described by Hamilton et al.. Briefly, reactions were performed at 26 °C in 250 μL of HEPES buffer (pH 7.5, 40 mM) containing EDTA (1 mM), NADP^+ (30 μM), DTNB (25 μM), TS2 (1 μM), NADPH (150 μM), glycerol (0.02%), DMSO (1.75%), and recombinant HIS-LiTryR (7 nM). […] Reactions were started by addition of a mixture (50 μL/well) of the substrates (NADPH and TS2).
LiTryR oxidoreductase activity was monitored at 26 °C by an increase in absorbance at 412 nm in an EnSpire Multimode Plate Reader (PerkinElmer, Waltham, MA, USA). In this DTNB-coupled assay, one molecule of T(SH)2 reduces one molecule of DTNB, producing two TNB molecules. The TNB concentration was obtained by multiplying the absorbance values by 100 (50 μM TNB generates 0.5 arbitrary units of absorbance at 412 nm).
For IC50 determinations, the initial velocities were calculated from the slope of the initial linear part of the reaction curves. The initial velocities of the reaction progress curves in the presence of inhibitor (concentrations ranging from 0.1 to 25 μM) were normalized as a percentage with respect to the initial velocity in the presence of the inhibitor vehicle (DMSO). IC50 values were obtained by fitting these percentages to a nonlinear regression model with GraFit 6 software (Erithacus, Horley, Surrey, U.K.). All the assays were performed in triplicate.

[2] = molecular target: T2, HIS-FLAG-tagged LiTryR dimer (Leishmania infantum, UniProt A4HSF7); assay: LiTryR dimer quantitation assay (ELISA); assay type: biochemical; conditions: 16 h at 37 °C; for IC50: HIS-FLAG-LiTryR 400 nM, Tris pH 8.0, 300 mM NaCl, compounds 25 to 3.1 μM, IC50 ± SE, three independent experiments in triplicate, read-out: IC50dim, LiTryR dimer quantitation
T2 construct: made in house; host or cells: E. coli BL21 (DE3) Rossetta 2
T2 sequence (A4HSF7 entry or part of it): as above
Protocol: The relative amount of the LiTryR dimeric form in the presence of the SMPCs was assessed using an enzyme-linked immunosorbent assay (ELISA), developed in our laboratory. Briefly, HIS-FLAG-tagged LiTryR (400 nM) was incubated in dimerization buffer (1 mL of 50 mM Tris pH 8.0 and 300 mM NaCl) for 16 h at 37 °C with vigorous shaking and in a humid atmosphere in the presence of the different compounds ranging from 25 to 3.1 μM. Following a 15 min centrifugation at 18,000× g and room temperature, the supernatants were added to the α-FLAG-coated plates (200 μL/well) and incubated for 30 min at 37 °C with vigorous shaking in a humid atmosphere. The plates were washed five times with TTBS buffer (2 mM Tris pH 7.6, 138 mM NaCl, and 0.1% Tween-20) and incubated with diluted monoclonal α-HIS horseradish peroxidase (HRP)-conjugated antibody (200 μL/well, 1:50,000, Abcam, Cambridge, UK) in fatty acid- and essentially globulin-free bovine serum albumin (5%) prepared in TTBS buffer for 1 h at room temperature. The plates were washed again five times and the o-phenylenediamine dihydrochloride substrate, prepared according to the manufacturer’s instructions, was added (100 μL/well). The enzymatic reactions were stopped after 5 min by addition of […] (100 μL/well) and the absorbances were measured at 490 nm in an EnSpire Multimode Plate Reader (PerkinElmer, Waltham, MA, USA).
For IC50 determinations, the absorbance values in the presence of different concentrations of inhibitor were normalized as a percentage with respect to the absorbance value in the presence of DMSO. The IC50 values were obtained by fitting these percentages to a nonlinear regression model with GraFit 6 software (Erithacus, Horley, Surrey, U.K.). The assays were carried out in triplicate and repeated three times.

[3] = qualitative, attributed to increased hydrophobicity of the adamantyl substituent

Row | Compound | IC50 ([1]; SEM) | IC50 ([2]; SEM) | also measured
1 | CC[C@H](C)[C@H](NC(=O)CNC(=O)[C@@H](NC(=O)[C@H](CO)NC(=O)[C@H](CCC(N)=O)NC(=O)[C@@H](NC(=O)[C@@H](NC(=O)[C@H](CCCCN)NC(=O)[C@@H]1CCCN1C(=O)COCCOCCNC(=O)CN1C(=O)c2cccc3cccc1c23)[C@@H](C)CC)[C@@H](C)CC)C(C)C)C(N)=O [1d] | 6.7 ± 0.4 µM | 7.8 ± 0.1 µM | 
2 | CC[C@H](C)[C@H](NC(=O)CNC(=O)[C@@H](NC(=O)[C@H](CO)NC(=O)[C@H](CCC(N)=O)NC(=O)[C@@H](NC(=O)[C@@H](NC(=O)[C@H](CCCCN)NC(=O)[C@@H]1CCCN1C(=O)COCCOCCNC(=O)Cc1ccc2ccccc2c1)[C@@H](C)CC)[C@@H](C)CC)C(C)C)C(N)=O [1b, Naphthyl-CH2-CO-NH-(CH2)2-O-(CH2)2-O-CH2-CO-NH-PKIIQSVGI-NH2] | 18.2 ± 1 µM | 8.7 ± 0.5 µM | 
3 | CC[C@H](C)[C@H](NC(=O)CNC(=O)[C@@H](NC(=O)[C@H](CO)NC(=O)[C@H](CCC(N)=O)NC(=O)[C@@H](NC(=O)[C@@H](NC(=O)[C@H](CCCCN)NC(=O)[C@@H]1CCCN1C(=O)COCCOCCNC(=O)Cc1ccccc1)[C@@H](C)CC)[C@@H](C)CC)C(C)C)C(N)=O [1a, Ph-CH2-CO-NH-(CH2)2-O-(CH2)2-O-CH2-CO-NH-PKIIQSVGI-NH2] | 22 ± 0.7 µM | 9.4 ± 0.1 µM | 
4 | CC[C@H](C)[C@H](NC(=O)CNC(=O)[C@@H](NC(=O)[C@H](CO)NC(=O)[C@H](CCC(N)=O)NC(=O)[C@@H](NC(=O)[C@@H](NC(=O)[C@H](CCCCN)NC(=O)[C@@H]1CCCN1C(=O)COCCOCC[N+](C)(C)Cc1ccccc1)[C@@H](C)CC)[C@@H](C)CC)C(C)C)C(N)=O [compound 9, (Ph-CH2)(Me)2N^+-(CH2)2-O-(CH2)2-O-CH2-CO-NH-PKIIQSVGI-NH2 I^−] | 18.3 ± 2.6 µM |  | IC50 [2]: > 25 µM; LiTryR dimer at 25 μM (%) [2]: 53.3%
5 | CC[C@H](C)[C@H](NC(=O)CNC(=O)[C@@H](NC(=O)[C@H](CO)NC(=O)[C@H](CCC(N)=O)NC(=O)[C@@H](NC(=O)[C@@H](NC(=O)[C@H](CCCCN)NC(=O)[C@@H]1CCCN1C(=O)COCCNC(=O)CN1C(=O)c2cccc3cccc1c23)[C@@H](C)CC)[C@@H](C)CC)C(C)C)C(N)=O [2d] | 6.9 ± 1.9 µM | 7.1 ± 0.1 µM | 
6 | CC[C@H](C)[C@H](NC(=O)CNC(=O)[C@@H](NC(=O)[C@H](CO)NC(=O)[C@H](CCC(N)=O)NC(=O)[C@@H](NC(=O)[C@@H](NC(=O)[C@H](CCCCN)NC(=O)[C@@H]1CCCN1C(=O)CN1C(=O)c2cccc3cccc1c23)[C@@H](C)CC)[C@@H](C)CC)C(C)C)C(N)=O [4d] | 8 ± 1.5 µM | 7.1 ± 0.2 µM | 
7 | CC[C@H](C)[C@H](NC(=O)CNC(=O)[C@@H](NC(=O)[C@H](CO)NC(=O)[C@H](CCC(N)=O)NC(=O)[C@@H](NC(=O)[C@@H](NC(=O)[C@H](CCCCN)NC(=O)[C@@H]1CCCN1C(=O)COCCOCC[N+](C)(Cc1ccccc1)Cc1ccccc1)[C@@H](C)CC)[C@@H](C)CC)C(C)C)C(N)=O [compound 10, (Ph-CH2)2(Me)N^+-(CH2)2-O-(CH2)2-O-CH2-CO-NH-PKIIQSVGI-NH2 I^−] | 9.2 ± 1.1 µM | 21.2 ± 3.5 µM | 
8 | CC[C@H](C)[C@H](NC(=O)CNC(=O)[C@@H](NC(=O)[C@H](CO)NC(=O)[C@H](CCC(N)=O)NC(=O)[C@@H](NC(=O)[C@@H](NC(=O)[C@H](CCCCN)NC(=O)[C@@H]1CCCN1C(=O)COCCOCCN(Cc1ccccc1)Cc1ccccc1)[C@@H](C)CC)[C@@H](C)CC)C(C)C)C(N)=O [compound 8, (Ph-CH2)2N-(CH2)2-O-(CH2)2-O-CH2-CO-NH-PKIIQSVGI-NH2] | 9.8 ± 2.3 µM | 7.1 ± 0.5 µM | 
9 | CC[C@H](C)[C@H](NC(=O)CNC(=O)[C@@H](NC(=O)[C@H](CO)NC(=O)[C@H](CCC(N)=O)NC(=O)[C@@H](NC(=O)[C@@H](NC(=O)[C@H](CCCCN)NC(=O)[C@@H]1CCCN1C(=O)Cc1ccccc1)[C@@H](C)CC)[C@@H](C)CC)C(C)C)C(N)=O [4a, Ph-CH2-CO-NH-PKIIQSVGI-NH2] | 10.3 ± 1.8 µM | 11.4 ± 0.1 µM | 
10 | CC[C@H](C)[C@H](NC(=O)CNC(=O)[C@@H](NC(=O)[C@H](CO)NC(=O)[C@H](CCC(N)=O)NC(=O)[C@@H](NC(=O)[C@@H](NC(=O)[C@H](CCCCN)NC(=O)[C@@H]1CCCN1C(=O)CCNC(=O)Cc1ccccc1)[C@@H](C)CC)[C@@H](C)CC)C(C)C)C(N)=O [3a, Ph-CH2-CO-NH-(CH2)2-CO-NH-PKIIQSVGI-NH2] | 20.6 ± 1.6 µM | 12.7 ± 1.1 µM | 
11 | CC[C@H](C)[C@H](NC(=O)CNC(=O)[C@@H](NC(=O)[C@H](CO)NC(=O)[C@H](CCC(N)=O)NC(=O)[C@@H](NC(=O)[C@@H](NC(=O)[C@H](CCCCN)NC(=O)[C@@H]1CCCN1C(C)=O)[C@@H](C)CC)[C@@H](C)CC)C(C)C)C(N)=O [TRL38, Ac-PKIIQSVGI-NH2, reference compound] |  |  | LiTryR oxidoreductase activity at 25 μM (%) ([1]; at 25 μM, reliable IC50 could not be determined): 65.1%; IC50 [1]: > 25 µM; IC50 [2]: > 25 µM; LiTryR dimer at 25 μM (%) [2]: 61.4%
12 | CC[C@H](C)[C@H](NC(=O)CNC(=O)[C@@H](NC(=O)[C@H](CO)NC(=O)[C@H](CCC(N)=O)NC(=O)[C@@H](NC(=O)[C@@H](NC(=O)[C@H](CCCCN)NC(=O)[C@@H]1CCCN1C(=O)COCCOCCNC(=O)CC12CC3CC(CC(C3)C1)C2)[C@@H](C)CC)[C@@H](C)CC)C(C)C)C(N)=O [1f, Adamantyl-CH2-CO-NH-(CH2)2-O-(CH2)2-O-CH2-CO-NH-PKIIQSVGI-NH2] | 7.6 ± 1.2 µM | 8.1 ± 0.2 µM | solubility [3]: decrease in solubility
13 | CC[C@H](C)[C@H](NC(=O)CNC(=O)[C@@H](NC(=O)[C@H](CO)NC(=O)[C@H](CCC(N)=O)NC(=O)[C@@H](NC(=O)[C@@H](NC(=O)[C@H](CCCCN)NC(=O)[C@@H]1CCCN1C(=O)COCCOCCNC(=O)Cc1ccc(-c2ccccc2)cc1)[C@@H](C)CC)[C@@H](C)CC)C(C)C)C(N)=O [1c, Biphenyl-CH2-CO-NH-(CH2)2-O-(CH2)2-O-CH2-CO-NH-PKIIQSVGI-NH2] | 16.6 ± 3.8 µM | 22.9 ± 1.4 µM | 
14 | CC[C@H](C)[C@H](NC(=O)CNC(=O)[C@@H](NC(=O)[C@H](CO)NC(=O)[C@H](CCC(N)=O)NC(=O)[C@@H](NC(=O)[C@@H](NC(=O)[C@H](CCCCN)NC(=O)[C@@H]1CCCN1C(=O)COCCOCCNCc1ccccc1)[C@@H](C)CC)[C@@H](C)CC)C(C)C)C(N)=O [compound 7, Ph-CH2-NH-(CH2)2-O-(CH2)2-O-CH2-CO-NH-PKIIQSVGI-NH2] | 8.3 ± 1.4 µM | 12.6 ± 0.6 µM | 
15 | CC[C@H](C)[C@H](NC(=O)CNC(=O)[C@@H](NC(=O)[C@H](CO)NC(=O)[C@H](CCC(N)=O)NC(=O)[C@@H](NC(=O)[C@@H](NC(=O)[C@H](CCCCN)NC(=O)[C@@H]1CCCN1C(=O)COCCNC(=O)Cc1ccccc1)[C@@H](C)CC)[C@@H](C)CC)C(C)C)C(N)=O [2a, Ph-CH2-CO-NH-(CH2)2-O-CH2-CO-NH-PKIIQSVGI-NH2] | 22.3 ± 1.5 µM | 15 ± 0.6 µM | 
